What all share (assay type): cell-based
One assay relates to p-mTOR. Kind of assay: p-mTOR protein expression in L6 muscle cells (western blotting). Conditions: 10 μM kirenol, 24 hours, vs 0.01% DMSO control, FIG. 1. As to the method: (§1) L6 myoblasts (American Type Culture Collection, Manassas, Va., USA), which are muscle cells, were incubated in Dulbecco's Modified Eagle's Medium (DMEM; Hyclone) containing 10% fetal bovine serum (FBS; Hyclone, Logan, Utah, USA), 100 U/mL penicillin, and 100 μg/mL streptomycin (Gibco, Grand Island, N.Y., USA). The L6 cells were treated with the Siegesbeckia glabrescens Mak. ethanol extract prepared according to the above Example 1-1, the Siegesbeckia pubescens Mak. ethanol extract prepared according to Example 2-1, or the Siegesbeckia orientalis L. ethanol extract prepared according to Example 3-1, each at a concentration of 10 ppm. Also, L6 cells were treated with 10 μM kirenol prepared according to Example 4. In this case, a group treated with 0.01% DMSO instead of being treated with a sample was prepared as a control group. […]
ECL western blotting detection reagents (Amersham, Tokyo, Japan) were used to color p-mTOR protein bands, and the G:BOX EF imaging system (Syngene, Cambridge, UK) was used to measure the densities of the colored protein bands. In this case, relative densities of protein bands of experimental groups treated with a sample were determined as a percentage (%), with the density of the control protein band being 100%. […]
(A western blot detects proteins with antibodies after separation by electrophoresis.)

The test system of the next assay is myogenin. The assay is described as follows: myogenin mRNA expression in TNF-α-treated differentiated L6 cells (RT-PCR). Conditions: TNF-α 24 hours, kirenol 10, 40 μM, FIG. 4. As to the method:
(§2) L6 myoblasts (American Type Culture Collection, Manassas, Va., USA), which are muscle cells, were incubated in DMEM (10% FBS, 100 U/mL penicillin, 100 μg/mL streptomycin). When the cell density reached about 80-85%, the cell culture medium was replaced with a DMEM growth medium supplemented with 2% FBS. The experiment was initiated after 6 days of differentiation. To induce muscle reduction, the differentiated L6 cells were treated with TNF-α for 24 hours and then with the ethanol extract of Siegesbeckia orientalis L. (10, 40 ppm) prepared according to Example 3-1 and kirenol (10, 40 μM) prepared according to Example 4. RT-PCR was carried out to measure mRNA expression levels of myogenin and MyoD, which are muscle differentiation regulatory factors. TRIzol Reagent (Invitrogen, Carlsbad, Calif., USA) was used for harvesting total RNA from the differentiated cells, and the total RNA was reverse transcribed. The RT-PCR analysis was carried out as follows: First, the RNA was reverse transcribed for cDNA synthesis by using a reverse transcriptase. RT-PCR was conducted using specific primers as listed below, and β-actin was used to indicate that a constant amount of mRNA was loaded into each lane.

The test system of the next assay is MyoD. Kind of assay: MyoD mRNA expression in TNF-α-treated differentiated L6 cells (RT-PCR). Conditions: TNF-α 24 hours, kirenol 10, 40 μM, FIG. 4. As for the experimental part: as §2
The subject of the next assay is atrogin-1. Kind of assay: atrogin-1 mRNA expression in differentiated L6 cells (RT-PCR). Conditions: kirenol 10, 40 μM, FIG. 6.
The subject of another assay is MuRF1. The assay is described as follows: MuRF1 mRNA expression in differentiated L6 cells (RT-PCR). Conditions: kirenol 10, 40 μM, FIG. 6.
The subject of a further assay is PGC-1α. Kind of assay: PGC-1α protein expression in L6 muscle cells (western blotting). Conditions: 10 μM kirenol, 24 hours, vs 0.01% DMSO control, FIG. 11. As to the method: as §1, with “(myoblast; American” for “(American”, “DMEM (Hyclone)” for “Dulbecco's Modified Eagle's Medium (DMEM; Hyclone)”, “to” for “to the above”, “1-1,” for “1-1, the”, “or” for “or the”, “group. 24 hours later, the L6 cells were dissolved in a RIPA (ELPIS-Biotech, Daejeon, Korea) buffer solution containing a proteinase inhibitor cocktail (Sigma-Aldrich, St. Louis, Mo., USA).” for “group.”
ECL western blotting detection reagents (Amersham, Tokyo, Japan) were used to color PGC-1α protein bands, and the G:BOX EF imaging system (Syngene, Cambridge, UK) was used to measure the densities of the colored protein bands. In this case, relative densities of protein bands of experimental groups treated with a sample were determined as a percentage (%), with the density of the control protein band being 100%. […]

Structures are written as SMILES.

1 molecule from patent US20170182106A1, “COMPOSITION INCLUDING KIRENOL OR SIEGESBECKIA HERBA EXTRACT FOR MUSCLE FUNCTION IMPROVEMENT OR EXERCISE ABILITY ENHANCEMENT” (University-Industry Foundation, Yonsei University, priority 2014, published 2017) can be followed below.

With `C[C@@]1(CO)C[C@@H](O)C[C@@]2(C)C3CC[C@](C)([C@@H](O)CO)C=C3CC[C@H]12` (stereo in doubt) [kirenol, (1R,3S,4aS,4bS,7S,10aS)-1,2,3,4,4a,4b,5,6,7,9,10,10a-Dodecahydro-3-hydroxy-7-[(R)-1,2-dihydroxyethyl]-1,4a,7-trimethylphenanthrene-1-methanol], the “protein expression level of p-mTOR” value in the assay with p-mTOR was “increased”. Moreover, in the assay on myogenin, the “mRNA expression level of myogenin” value is “increases”. In addition, the “mRNA expression level of MyoD” value with MyoD is “increases”. For the same molecule, the “mRNA expression level of atrogin-1” value in the assay with atrogin-1 is on record as “reduces”. Moreover, in the assay with MuRF1, the “mRNA expression level of MuRF1” value is “reduces”. Besides, the “protein expression level of PGC-1α” value in the assay with PGC-1α is given as “increased”.
